One test concerns the target D(2) dopamine receptor (Homo sapiens, UniProt P14416). Briefly: Displacement of [3H]spiperone from human dopamine D2S receptor expressed in CHO-K1 cell membrane incubated for 2 hrs by MicroBeta Trilux scintillation counting method. It counts as cell membranes. Background: Loss of bound radioactivity is the signal in a displacement assay; it reports binding, not function.

In the next test the target is D(3) dopamine receptor (Homo sapiens, UniProt P35462). In words: Displacement of [3H]spiperone from human dopamine D3 receptor expressed in dihydrofolate reductase deficient CHO-K1 cell membrane incubated for 2 hrs by MicroBeta Trilux scintillation counting method. The format is cell membranes.
D(3) dopamine receptor, sequence (P35462 whole entry): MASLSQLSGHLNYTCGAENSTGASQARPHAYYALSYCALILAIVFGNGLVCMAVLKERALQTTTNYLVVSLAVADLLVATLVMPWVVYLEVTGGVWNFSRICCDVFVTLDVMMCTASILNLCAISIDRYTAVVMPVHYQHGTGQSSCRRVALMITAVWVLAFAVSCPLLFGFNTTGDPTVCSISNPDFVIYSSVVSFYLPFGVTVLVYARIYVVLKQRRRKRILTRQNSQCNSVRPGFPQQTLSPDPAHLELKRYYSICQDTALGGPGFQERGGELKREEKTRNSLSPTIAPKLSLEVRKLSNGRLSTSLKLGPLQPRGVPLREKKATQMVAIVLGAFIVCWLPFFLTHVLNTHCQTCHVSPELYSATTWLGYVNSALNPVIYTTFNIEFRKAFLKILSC

The structures appear in SMILES notation.

D(2) dopamine receptor, sequence (P14416 whole entry): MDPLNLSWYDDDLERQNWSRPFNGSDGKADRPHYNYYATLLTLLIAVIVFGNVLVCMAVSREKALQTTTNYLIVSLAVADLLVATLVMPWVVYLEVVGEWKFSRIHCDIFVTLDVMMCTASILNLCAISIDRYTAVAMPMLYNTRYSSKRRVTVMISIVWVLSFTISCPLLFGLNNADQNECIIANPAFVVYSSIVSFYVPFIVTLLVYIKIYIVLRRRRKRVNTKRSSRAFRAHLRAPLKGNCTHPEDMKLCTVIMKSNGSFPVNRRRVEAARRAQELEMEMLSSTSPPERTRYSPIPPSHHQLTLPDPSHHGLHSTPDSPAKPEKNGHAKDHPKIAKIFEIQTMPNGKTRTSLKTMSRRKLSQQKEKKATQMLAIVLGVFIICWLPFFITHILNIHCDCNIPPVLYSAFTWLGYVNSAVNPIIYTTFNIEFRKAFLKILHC

On to `O=C(NCCCCN1CCc2ncsc2CC1)C12CC3CC(CC(C3)C1)C2`, for which the Ki (commonly the equilibrium dissociation constant of an inhibitor or competing ligand from its target) on D(2) dopamine receptor was 5500 nM; on D(3) dopamine receptor it was 447 nM.

For `COc1ccccc1N1CCN(CCCCN2CCc3ncsc3CC2)CC1`, the values for the inhibition constant Ki at D(2) dopamine receptor and at D(3) dopamine receptor were 85.1 nM and 309 nM, respectively.

As to `Nc1nc2c(s1)CCN(CCCCN1CCN(c3ncccn3)CC1)CC2`, the Ki was 2750 nM at D(2) dopamine receptor and 3800 nM on D(3) dopamine receptor.

Regarding `c1cnc(N2CCN(CCCCN3CCc4ncsc4CC3)CC2)nc1`, the Ki on D(2) dopamine receptor is 2510 nM; at D(3) dopamine receptor, 3090 nM.

Turning to `COc1ccccc1N1CCN(CCN2CCc3ncsc3CC2)CC1`, the values for the Ki on D(2) dopamine receptor and at D(3) dopamine receptor were 151 nM and 240 nM, respectively.

Consider `COc1ccccc1N1CCN(CCCN2CCCc3ncsc3C2)CC1`, for which the Ki at D(2) dopamine receptor was 178 nM; on D(3) dopamine receptor, 257 nM.

As for `COc1ccccc1N1CCN(CCCCOc2ccc3scnc3c2)CC1`, the Ki on D(2) dopamine receptor was 3.24 nM; at D(3) dopamine receptor, 8.51 nM.

As for `O=C(c1ccccc1)N1CCN(CCN2CCc3ncsc3CC2)CC1`, the Ki was 41700 nM on D(2) dopamine receptor and 12300 nM on D(3) dopamine receptor.

Regarding `c1nc2c(s1)CCN(CCCCN1CCc3ncsc3CC1)CC2`, the Ki at D(2) dopamine receptor is 6310 nM; on D(3) dopamine receptor, 3800 nM.

Regarding `COc1ccccc1N1CCN(CCCN2CCc3ncsc3CC2)CC1`, the Ki at D(2) dopamine receptor is 64.6 nM; on D(3) dopamine receptor, 166 nM.

Turning to `Nc1nc2c(s1)CCN(CCCCN1CCN(c3cccc(Cl)c3Cl)CC1)CC2`, the Ki is 22.4 nM on D(2) dopamine receptor and 25.7 nM at D(3) dopamine receptor.

Turning to `Clc1cccc(N2CCN(CCCCN3CCc4ncsc4CC3)CC2)c1Cl`, the Ki on D(2) dopamine receptor was 18.2 nM; on D(3) dopamine receptor, 28.2 nM.

For `COc1ccccc1N1CCN(CCCCOc2ccc3sc(N)nc3c2)CC1`, the Ki at D(2) dopamine receptor is 2.82 nM; at D(3) dopamine receptor, 3.02 nM.

The values are drawn from ChEMBL document CHEMBL4334436 (Medchemcomm, 2019).
